Results reported in patent US12187759B2, “TLR7 agonists” (Primmune Therapeutics, Inc., priority 2019, dated 2025).
pEC50: −log10 of the molar value. Where two headings read alike, the source gives them in different places.

Tests used:
[1] = target: T1, human TLR7 (Homo sapiens, UniProt Q9NYK1); test: TLR7 reporter cell assay (HEK293 cells stably expressing human TLR7 with NF-κB-driven SEAP reporter); type: cell-based; settings: for pEC50: fit of SEAP dose response, ymax from 28.5 μM resiquimod
T1 construct: host or cells: HEK293
T1 sequence (Q9NYK1 27-1049): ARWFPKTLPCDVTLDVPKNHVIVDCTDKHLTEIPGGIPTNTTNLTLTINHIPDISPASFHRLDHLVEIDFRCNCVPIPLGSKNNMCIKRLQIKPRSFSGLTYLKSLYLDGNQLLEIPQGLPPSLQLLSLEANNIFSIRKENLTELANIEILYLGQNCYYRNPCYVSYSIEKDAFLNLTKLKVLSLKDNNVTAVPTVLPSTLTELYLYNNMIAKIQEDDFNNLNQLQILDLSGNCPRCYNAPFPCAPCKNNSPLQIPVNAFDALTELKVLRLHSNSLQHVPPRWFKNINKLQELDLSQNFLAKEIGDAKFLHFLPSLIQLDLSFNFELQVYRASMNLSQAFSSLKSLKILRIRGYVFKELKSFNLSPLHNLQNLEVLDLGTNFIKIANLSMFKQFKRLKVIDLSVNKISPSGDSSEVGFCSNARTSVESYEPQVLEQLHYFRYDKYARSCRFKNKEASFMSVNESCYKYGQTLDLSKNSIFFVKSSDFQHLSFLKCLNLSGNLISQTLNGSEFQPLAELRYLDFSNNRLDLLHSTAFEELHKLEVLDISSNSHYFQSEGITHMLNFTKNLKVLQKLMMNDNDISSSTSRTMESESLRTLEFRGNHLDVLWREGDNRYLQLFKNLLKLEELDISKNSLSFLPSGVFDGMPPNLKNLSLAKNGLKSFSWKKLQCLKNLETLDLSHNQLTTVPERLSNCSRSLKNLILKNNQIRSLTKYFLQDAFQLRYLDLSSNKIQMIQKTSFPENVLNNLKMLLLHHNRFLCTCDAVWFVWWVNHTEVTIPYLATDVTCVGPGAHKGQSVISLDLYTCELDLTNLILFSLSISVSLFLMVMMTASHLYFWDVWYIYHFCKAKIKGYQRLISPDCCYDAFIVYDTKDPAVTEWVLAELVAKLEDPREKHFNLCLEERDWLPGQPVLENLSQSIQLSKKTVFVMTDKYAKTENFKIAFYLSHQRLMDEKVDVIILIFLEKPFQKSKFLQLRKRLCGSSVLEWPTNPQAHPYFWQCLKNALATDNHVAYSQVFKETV
From the text: The engagement of TLRs by cognate ligands triggers downstream signaling cascades, leading to the activation of NF-κB and other transcription factors which initiate various immunomodulatory effects. The human embryonic kidney cell line, HEK293, is essentially non-responsive to TLR agonists, but ectopic expression of TLRs in these cells allows cognate agonists to activate endogenous NF-κB. Accordingly, the HEK293-TLR-NF-κB inducible reporter system is used to assay TLR agonists.
HEK293 cell lines stably expressing human TLR7 or TLR8 together with an NF-κB-driven-secreted alkaline phosphatase (SEAP) reporter were invented at InvivoGen (San Diego, California, USA) and used to assess compounds of the present invention for TLR7 and TLR8 agonist activities. Cells were seeded at 2-5×10^4 cells/well in 96 well plates (200 μl/well) and treated with various concentrations of compound (10 μl) for 15-24 hours. SEAP activity was determined by measuring OD at 650 nm; the media used to culture the cell lines contains the reagents required for SEAP detection. The EC50 values in Table 1 are calculated from fitting the dose response of measured SEAP activity for each compound to the following equation: Y=ymax*c^nh/(EC50^nh+c^nh)+blank where Y is the experimentally measured OD650 at concentration c of test article, blank is the observed OD650 in the absence of TLR7 agonist, ymax is the difference between the measured OD650 in the presence of 28.5 μM resiquimod and the blank and values of EC50 and nh are determined by nonlinear least squares analysis. Resiquimod is a known TLR7 and TLR8 agonist.
Compound A is 5-amino-3-((2R,3R,5S)-3-hydroxy-5-((S)-1-hydroxypropyl)tetrahydrofuran-2-yl)thiazolo[4,5-d]pyrimidine-2,7(3H,6H)-dione)

[2] = tested on: hPBMCs (Human Peripheral Blood Mononuclear Cells); test: Induction of interferon-α in hPBMCs in vitro; type: cell-based; settings: for Emax / minimal effective concentration: Homo sapiens, PBMC; for Emax: 24 h, peak IFNα2a as percentage of peak response of standard 2-Amino-7-(cyclopropylmethyl)-9-B-D-xylofuranosyl-7,9-dihydro-1H-purine-6,8-dione, averaged across donors, read-out: IFNrmax, Relative Maximal IFNα2a Production (%); for minimal effective concentration: minimal effective concentration for interferon-α production (generally at least 80 pg/ml above baseline), geometric mean across at least three donors, 24 hours, read-out: Weighted MEC
Protocol: Treatment of hPBMCs with a TLR7 agonist typically induces some production of interferon-α as well as lesser amounts of a variety of other cytokines and chemokines. A typical experiment uses hPBMCs isolated from a healthy donor and placed in replicate cell culture wells; typically 1.0-7.5×10^6 cells are placed in each well. A test compound is added and the cells are cultured for 24 hours at 37° C. in a humidified atmosphere containing 5% CO2 post-addition; untreated controls are included. Secreted interferon-α production is measured using an a multisubtype interferon-α ELISA kit like those from PBL Assay Sciences or specifically as IFNα2a as part of a panel of cytokines and chemokines using luminex methodologies.
The minimal effective concentration (MEC) is the minimum concentration in a dose response curve where a significant increase in interferon-α production (generally at least 80 pg/ml) is observed above baseline. MEC values for each compound are determined for at least three donors. The weighted MEC for each compound is the geometric mean of all individual MECs across all donors. Concentrations tested typically consist of a two-fold dilution series starting at 100 μM. In the calculation of weighted MEC, any individual MEC value greater the highest concentration tested is arbitrarily set to two times the highest concentration tested unless all MECs for a compound exceed this value. The maximal amount of IFNα2a for each donor is determined from dose dependence for each compound.
In order to normalize for variation in each hPBMC preparation, these values are first transformed by expressing as a percentage of peak response measured with a standard (2-Amino-7-(cyclopropylmethyl)-9-B-D-xylofuranosyl-7,9-dihydro-1H-purine-6,8-dione) and then averaging the results across all donors, this average referred to as IFNrmax.
IFNmax is the maximum amount of IFN observed at any concentration across the evaluated concentration range. MEC and IFNmax values for three select compound are shown for three donors (Table 3). The range of tested concentrations were 0.625-5 μM for Imiquimod, 3.125-100 μM for both Compound A and Compound 1, 12.5-100 μM for Compound 2.

[3] = HEK293, 500 μM compound, SEAP activity (OD 650 nm) relative to 28.5 μM resiquimod, 15-24 hours, read-out: Response at 500 μM Compound as a Percent of Resiquimod Response

Emax at 500 µM [1, 3] [%]	pEC50 ([1]; 15-24 hours)	SMILES	Emax [2] [%]	minimal effective concentration [2] [µM]	Emax at 500 µM ([1]; HEK293, read-out: Response at 500 μM Compound as a Percent of Resiquimod Response) [%]	Donor 1 MEC ([2]; Donor 1, interferon-α production) [µM]	Donor 1 IFNmax ([2]; Donor 1, maximum IFN at any concentration of the evaluated range) [pg/mL]	Donor 2 MEC ([2]; Donor 2, interferon-α production) [µM]	Donor 2 IFNmax ([2]; Donor 2, maximum IFN at any concentration of the evaluated range) [pg/mL]	Donor 3 MEC ([2]; Donor 3, interferon-α production) [µM]	Donor 3 IFNmax ([2]; Donor 3, maximum IFN at any concentration of the evaluated range) [pg/mL]
79	3.70	Nc1nc2c(c(=O)[nH]1)n(CC1CC1)c(=O)n2[C@@H]1O[C@H]([C@@H](O)C(F)(F)F)C[C@H]1O [Compound 29, 2-Amino-7-(cyclopropylmethyl)-9-((2R,3R,5S)-3-hydroxy-5-((R)-2,2,2-trifluoro-1-hydroxyethyl)tetrahydrofuran-2-yl)-7,9-dihydro-1H-purine-6,8-dione]	83	6.3							
30	< 3.30	CC[C@H](O)[C@H]1O[C@@H](n2c(=O)n(CCSC)c3c(=O)[nH]c(N)nc32)[C@H](O)[C@H]1F [Compound 46, 2-Amino-9-((2R,3S,4R,5R)-4-fluoro-3-hydroxy-5-((S)-1-hydroxypropyl)tetrahydrofuran-2-yl)-7-(2-(methylthio)ethyl)-7,9-dihydro-1H-purine-6,8-dione]	317	3.1							
61	3.47	CC[C@H](O)[C@H]1O[C@@H](n2c(=O)n(CCC(F)(F)F)c3c(=O)[nH]c(N)nc32)[C@H](O)[C@H]1F [Compound 27, 2-Amino-9-((2R,3S,4R,5R)-4-fluoro-3-hydroxy-5-((S)-1-hydroxypropyl)tetrahydrofuran-2-yl)-7-(3,3,3-trifluoropropyl)-7,9-dihydro-1H-purine-6,8-dione]	209	≤ 1.6							
91	3.94	C#CC[C@H](O)[C@@H]1C[C@@H](O)[C@H](n2c(=O)n(CC#C)c3c(=O)[nH]c(N)nc32)O1 [Compound 35, 2-Amino-9-((2R,3R,5S)-3-hydroxy-5-((S)-1-hydroxybut-3-yn-1-yl)tetrahydrofuran-2-yl)-7-(prop-2-yn-1-yl)-7,9-dihydro-1H-purine-6,8-dione]	207	3.1							
< 5		C#CCn1c(=O)n([C@@H]2O[C@H](C(=O)OC)C[C@H]2O)c2nc(N)[nH]c(=O)c21 [Compound 39, Methyl (2S,4R,5R)-5-(2-amino-6,8-dioxo-7-(prop-2-yn-1-yl)-1,6,7,8-tetrahydro-9H-purin-9-yl)-4-hydroxytetrahydrofuran-2-carboxylate]	≤ 10	> 50							

Second part, the compound before the results:

SMILES	Emax at 500 µM [1, 3] [%]	pEC50 ([1]; 15-24 hours)	Emax [2] [%]	minimal effective concentration [2] [µM]	Emax at 500 µM ([1]; HEK293, read-out: Response at 500 μM Compound as a Percent of Resiquimod Response) [%]	Donor 1 MEC ([2]; Donor 1, interferon-α production) [µM]	Donor 1 IFNmax ([2]; Donor 1, maximum IFN at any concentration of the evaluated range) [pg/mL]	Donor 2 MEC ([2]; Donor 2, interferon-α production) [µM]	Donor 2 IFNmax ([2]; Donor 2, maximum IFN at any concentration of the evaluated range) [pg/mL]	Donor 3 MEC ([2]; Donor 3, interferon-α production) [µM]	Donor 3 IFNmax ([2]; Donor 3, maximum IFN at any concentration of the evaluated range) [pg/mL]
CC[C@H](O)[C@@H]1C[C@@H](O)[C@H](n2c(=O)n(CCSC)c3c(=O)[nH]c(N)nc32)O1 [Compound 22, 2-Amino-9-((2R,3R,5S)-3-hydroxy-5-((S)-1-hydroxypropyl)tetrahydrofuran-2-yl)-7-(2-(methylthio)ethyl)-7,9-dihydro-1H-purine-6,8-dione]	69	3.65	307	6.3							
CC[C@H](O)[C@@H]1C[C@@H](O)[C@H](n2c(=O)n(CC3CC3)c3c(=O)[nH]c(N)nc32)O1 [Compound 4, 2-Amino-7-(cyclopropylmethyl)-9-((2R,3R,5S)-3-hydroxy-5-((S)-1-hydroxypropyl)tetrahydrofuran-2-yl)-7,9-dihydro-1H-purine-6,8-dione]	81	3.88	226	12.5							
C#CCn1c(=O)n([C@@H]2O[C@H]([C@H](O)CC)C[C@H]2O)c2nc(N)[nH]c(=O)c21 [Compound 2, 2-amino-9-((2R,3R,5S)-3-hydroxy-5-((R)-1-hydroxypropyl)tetrahydrofuran-2-yl)-7-(prop-2-yn-1-yl)-7,9-dihydro-1H-purine-6,8-dione]					< 5	50	4523	>100	9	100	3110
C#CCn1c(=O)n([C@@H]2O[C@H]([C@@H](O)CC)[C@H](F)[C@H]2O)c2nc(N)[nH]c(=O)c21 [Compound 13, 2-Amino-9-((2R,3S,4R,5R)-4-fluoro-3-hydroxy-5-((S)-1-hydroxypropyl)tetrahydrofuran-2-yl)-7-(prop-2-yn-1-yl)-7,9-dihydro-1H-purine-6,8-dione]	92	3.92	353	≤ 3.3							
C=C=Cn1c(=O)n([C@@H]2O[C@H]([C@@H](O)CC)C[C@H]2O)c2nc(N)[nH]c(=O)c21 [Compound 8, 2-Amino-9-((2R,3R,5S)-3-hydroxy-5-((S)-1-hydroxypropyl)tetrahydrofuran-2-yl)-7-(propa-1,2-dien-1-yl)-7,9-dihydro-1H-purine-6,8-dione]	< 5		215	5.4							
C#CCn1c(=O)n([C@@H]2O[C@H]([C@@H](O)CF)C[C@H]2O)c2nc(N)[nH]c(=O)c21 [Compound 24, 2-Amino-9-((2R,3R,5S)-5-((R)-2-fluoro-1-hydroxyethyl)-3-hydroxytetrahydrofuran-2-yl)-7-(prop-2-yn-1-yl)-7,9-dihydro-1H-purine-6,8-dione]	52	3.49	205	12.5							
